System: Holstein calves
Test: Test on anion regulating activity (urinary pH)
Assay type: in vivo
Conditions: Table 3 and FIG. 1 summary
Experimental: If a DCAD value is positive, the urinary pH is 7-8.5. It is also known that if an anion regulator is added, and as a result the feed is changed to show a negative DCAD value, the urinary pH of animals to which such feed has been fed is reduced and will show a value of 6.5-5.5 when the anion regulator has been added in an appropriate amount. […] (1995), Sep., p.634 (Japanese version).
Experiments were conducted using six(6) Holstein calves with a body weight of approximately 200 kg. They were divided into three groups, two calves in a group. The groups were each fed with one of the following three(3) types of experimental feeds. Feed consisting of […] concentrated feed (“Beef-fast”, ex Itochu Feed Co.), 550 g of timothy-hay and 550 g of alfalfa hay cubes was fed, twice a day, at 9 and 16 o'clock, for one week before the start of the experiment, for adaptation.
These three(3) types of mixed feeds were separately supplied to each group at 9 and 16 o'clock on the same day and at 9 o'clock on the next day. After 10 minutes, each mixed feed was removed, and subsequently, a mixture of 900 g of concentrated feed, 500 g of timothy-hay and 550 g of alfalfa hay cubes, was supplied instead.
In the table and figure, for example, terms Lys HCl 1 and Lys HCl 2 indicate respectively the two calves in the first group which was fed with Lys HCl (Lys HCl-feeded group).

| Structure (SMILES) | Effectiveness as anion regulator | Reduction of urinary pH compared with NH4Cl |
| --- | --- | --- |
| Cl.N=C(N)NCCC[C@H](N)C(=O)O [L-arginine hydrochloride, L-arginine monohydrochloride] | effective as anion regulators | reduce urinary pH better than NH4Cl |
| Cl.NCCCC[C@H](N)C(=O)O [L-lysine hydrochloride, L-lysine monohydrochloride] | effective as anion regulators | reduce urinary pH better than NH4Cl |
